US20060019971A1, “Treatment of cardiovascular disease with inhibitors of p38 kinase” (priority 2003, published 2006)

Tested on: ET-1 mRNA in HPBMCs
Assay: ET-1 gene expression in HPBMCs, real-time PCR
Type: cell-based, human
Details: 10 μg/ml CRP added to 10% FCS, HPBMCs, 6 hours
Procedure: 5×10^6 HPBMCs were plated in 6-well. After 1 hour medium was removed and cells were treated with vehicle or 1 μM P38 INHIBITOR in RPMI 1640 medium. After 1 hour cells were stimulated with 10% FCS only or 10 μg/ml CRP plus 10% FCS. After 6 hours RNA was extracted from the cells and ET-1 gene expression level was determined by real-time PCR as described in the Experimental section.
Cryopreserved human peripheral blood monocytes (HPBMCs, from Biowitker, Walkersvill, Md.) were thawed and washed twice in RPMI 1640. Cells were plated in tissue culture plates and incubated in 5% CO2 at 37 C. After 1 hr media were removed and cells were treated with various treatments. After 2 to 20 hours conditioned media and/or cell lysates were collected for the analyses of secreted cytokines, protein or mRNA expression. 10 μg/ml of purified human CRP (Calbiochem, San Diego, Calif.) was used in most of the treatments. In some experiments fetal calf serum (FCS from ATCC) was added to a final concentration of 10% together with CRP. In the examples provided herein, including those assessing the effects of p38 antagonism, cells were pre-treated with SD, a p38 small molecule inhibitor (Compound 162 in Table A) for 1 hour prior to CRP treatment as described above. In a parallel series of experiments, the effect of vehicle (DMSO) was tested. For TaqMan analyses of various gene expression cells were lysed in ice-cold RLT lysis buffer (Qiagen, Valencia, Calif.) and the lysates were kept in −80° C. until the analyses. […]
RNA was extracted from the cells using Qiagen RNA extraction kit according to the manufacturer's instruction. The expression of pro-inflammatory genes IL-1β, IL-6, IL-8, TNFα, COX-2, ET-1, TF were assessed by real-time PCR. […]
Real-time RT-PCR was performed in a two-step manner. cDNA synthesis and real-time detection were carried out in a PTC-100™ Thermal Cycler (MJ Research Inc, Waltham, Mass.) and an ABI Prism™ 7700 Sequence Detection System (Applied Biosystems, Foster City, Calif.), respectively. […] Relative quantitation of gene expression was performed using the relative standard curve method. […]

Row | Molecule | augmentation of ET-1 gene expression [fold]
1 | CRP: purified human CRP (Calbiochem), stimulus applied at 10 μg/ml to HPBMCs (protein, UniProt P02741 19-224, looked up) C-reactive protein: QTDMSRKAFVFPKESDTSYVSLKAPLTKPLKAFTVCLHFYTELSSTRGYSIFSYATKRQDNEILIFWSKDIGYSFTVGGSEILFEVPEVTVAPVHICTSWESASGIVEFWVDGKPRVRKSLKKGYTVGAEASIILGQEQDSFGGNFEGSQSLVGDIGNVNMWDFVLSPDEINTIYLGGPFSPNVLNWRALKYEVQGEVFTKPQLWP | 1.7

Target: T1, p38 MAP kinase (Homo sapiens, UniProt Q16539)
T1 construct: expressed in transfected cells; kinase immunoprecipitated from lysates
T1 sequence (Q16539 whole entry): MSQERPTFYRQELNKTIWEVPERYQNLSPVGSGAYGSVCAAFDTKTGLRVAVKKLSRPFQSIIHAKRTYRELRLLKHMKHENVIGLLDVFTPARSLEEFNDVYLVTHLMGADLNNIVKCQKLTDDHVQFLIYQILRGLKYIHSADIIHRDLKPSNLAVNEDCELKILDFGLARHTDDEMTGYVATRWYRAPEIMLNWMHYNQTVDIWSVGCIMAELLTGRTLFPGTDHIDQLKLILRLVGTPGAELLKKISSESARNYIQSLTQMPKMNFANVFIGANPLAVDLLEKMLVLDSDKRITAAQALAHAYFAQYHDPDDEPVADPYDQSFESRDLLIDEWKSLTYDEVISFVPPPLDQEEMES
Assay: p38 MAP kinase phosphorylation assay (similar to Kumar)
Type: biochemical
Details: assay similar to the phosphorylation assay (Kumar)
Procedure: Alternative assays involving in vitro analysis of potential inhibitors include those where cells (HeLa) transfected with DNA coding for relevant kinases can be activated with substances such as sorbitol, IL-1, TNF, or PMA (phorbol myristate acetate). After immunoprecipitation of cell lysates, equal aliquots of immune complexes of the kinases are pre-incubated for an adequate time with a specific concentration of the potential inhibitor followed by addition of kinase substrate buffer mix containing labeled ATP and GST-ATF2 or MBP. After incubation, kinase reactions are ceased by the addition of SDS loading buffer. Phosphorylated substrate is resolved through SDS-PAGE and visualized and quantitated in a phosphorimager. Both p38 regulation, in terms of phosphorylation, and IC50 values can be determined by quantitation. See, for example Kumar,S., McDonnell, P., Gum, R., Hand, A., Lee, J., and Young, P. (1997) Biochem. Biophys. Res. Commun. 235, 533-538.

Row | p38 MAP kinase activity | Molecule
2 | exhibit p38 MAP kinase activity | COc1cc2[nH]cc(C(=O)C(=O)N3CCOCC3)c2cc1C(=O)N1CCC(Cc2ccc(F)cc2)CC1 [Compound 141]
3 | exhibit p38 MAP kinase activity | C[C@@H]1CN(Cc2ccc(F)cc2)[C@@H](C)CN1C(=O)c1cc2c(C(=O)C(=O)N3CCOCC3)cn(C)c2cc1Cl [Compound 96]
4 | exhibit p38 MAP kinase activity | COc1cc2c(cc1C(=O)N1CCC(Cc3ccc(F)cc3)CC1)c(C(=O)C(=O)N1CCN(C)CC1)cn2C [Compound 3]
5 | exhibit p38 MAP kinase activity | Cn1cc(C(=O)C(=O)N2CCCC2)c2cc(C(=O)N3CCC(Cc4ccc(F)cc4)CC3)c(Cl)cc21 [Compound 84]
6 | exhibit p38 MAP kinase activity | COc1cc2c(cc1C(=O)N1CCC(=Cc3ccc(F)cc3)CC1)c(C(=O)C(=O)N(C)C)cn2C [Compound 67]
7 | exhibit p38 MAP kinase activity | Cc1[nH]c2cc(Cl)c(C(=O)N3CCC(Cc4ccc(F)cc4)CC3)cc2c1C(=O)C(=O)N1CCN(C)CC1 [Compound 169]
8 | exhibit p38 MAP kinase activity | COc1cc2c(cc1C(=O)N1C[C@H](C)N(Cc3ccc(F)cc3)C[C@@H]1C)c(C(=O)C(=O)N(C)C)cn2C [Compound 15]
9 | exhibit p38 MAP kinase activity | COc1cc2c(cc1C(=O)N1CCC(Cc3ccc(F)cc3)CC1)c(C(=O)C(=O)O)cn2C [Compound 2]
10 | exhibit p38 MAP kinase activity | COc1cc2[nH]cc(C(=O)C(=O)N(C)C)c2cc1C(=O)N1CC(C)N(Cc2ccc(F)cc2)CC1C (centres unmarked) [Compound 154]

Row | Molecule | p38 MAP kinase activity
11 | COCn1cc(C(=O)C(=O)N(C)C)c2cc(C(=O)N3C[C@H](C)N(Cc4ccc(F)cc4)C[C@H]3C)c(OC)cc21 [Compound 92] | exhibit p38 MAP kinase activity
